ChEMBL document CHEMBL4052617, “Antibacterial activity of N-methylbenzofuro[3,2-b]quinoline and N-methylbenzoindolo[3,2-b]-quinoline derivatives and study of their mode of action” (2017)

Columns and labels:
Type in all cases: functional
Escherichia coli [1] = assay: Antibacterial activity against Escherichia coli ATCC […] expressing NDM-1 beta-lactamase after 18 hrs by Mueller-Hinton broth microdilution method
Staphylococcus aureus [2] = assay: Antibacterial activity against methicillin-resistant Staphylococcus aureus ATCC BAA41 after 18 hrs by cation adjusted Mueller-Hinton broth microdilution method; conditions: ATCC BAA41, 18 h
Bacillus subtilis = assay: Antibacterial activity against Bacillus subtilis 168 after 18 hrs by Mueller-Hinton broth microdilution method; conditions: subsp. subtilis str. 168, 18 h
Escherichia coli [3] = assay: Antibacterial activity against Escherichia coli ATCC 25922 after 18 hrs by Mueller-Hinton broth microdilution method; conditions: ATCC 25922, 18 h
Enterococcus faecium [4] = assay: Antibacterial activity against antibiotic-susceptile Enterococcus faecium ATCC 49624 after 18 hrs by brain heart infusion broth microdilution method; conditions: ATCC 49624, 18 h
Staphylococcus aureus [5] = assay: Antibacterial activity against Staphylococcus aureus ATCC 29213 after 18 hrs by cation adjusted Mueller-Hinton broth microdilution method; conditions: ATCC 29213, 18 h
Pseudomonas aeruginosa = assay: Antibacterial activity against multidrug-resistant Pseudomonas aeruginosa ATCC BAA2108 after 18 hrs by Mueller-Hinton broth microdilution method; conditions: ATCC BAA2108, 18 h
Klebsiella pneumoniae = assay: Antibacterial activity against Klebsiella pneumoniae ATCC BAA2470 expressing NDM-1 beta-lactamase after 18 hrs by Mueller-Hinton broth microdilution method; conditions: ATCC BAA2470, 18 h
Enterococcus faecium [6] = assay: Antibacterial activity against vancomycin-resistant Enterococcus faecium ATCC 700221 after 18 hrs by brain heart infusion broth microdilution method; conditions: ATCC 700221, 18 h

Row | SMILES | MIC (Escherichia coli [1]) [µg/mL] | MIC (Staphylococcus aureus [2]) [µg/mL] | MIC (Bacillus subtilis) [µg/mL] | MIC (Escherichia coli [3]) [µg/mL] | MIC (Enterococcus faecium [4]) [µg/mL] | MIC (Staphylococcus aureus [5]) [µg/mL] | MIC (Pseudomonas aeruginosa) [µg/mL] | MIC (Klebsiella pneumoniae) [µg/mL] | MIC (Enterococcus faecium [6]) [µg/mL]
1 | Cc1ccccc1Nc1c2ccccc2[n+](C)c2c1[nH]c1ccccc12.[I-] | 12 | 6 | 6 | 12 | 8 | 6 | > 64 | > 64 | 8
2 | Cc1ccc(Nc2c3ccccc3[n+](C)c3c2oc2ccccc23)cc1C.[I-] | 12 | 6 | 6 | 12 | 8 | 6 | > 64 | > 64 | 8
3 | C[n+]1c2ccccc2c(Nc2ccc(F)cc2)c2oc3ccccc3c21.[I-] | 12 | 6 | 6 | 12 | 8 | 6 | > 64 | > 64 | 8
4 | COc1ccccc1Nc1c2ccccc2[n+](C)c2c1oc1ccccc12.[I-] | 12 | 6 | 6 | 12 | 8 | 6 | > 64 | > 64 | 8
5 | Cc1ccc(Nc2c3ccccc3[n+](C)c3c2[nH]c2ccccc23)cc1F.[I-] | 8 | 4 | 4 | 8 | 8 | 4 | 64 | 64 | 8
6 | Cc1cc(C)cc(Nc2c3ccccc3[n+](C)c3c2[nH]c2ccccc23)c1.[I-] | 8 | 4 | 4 | 8 | 8 | 4 | > 64 | > 64 | 8
7 | CCOc1ccc(Nc2c3ccccc3[n+](C)c3c2[nH]c2ccccc23)cc1.[I-] | 6 | 2 | 2 | 6 | 4 | 2 | 48 | 48 | 4
8 | CCOc1ccccc1Nc1c2ccccc2[n+](C)c2c1oc1ccccc12.[I-] | 12 | 6 | 6 | 12 | 8 | 6 | > 64 | > 64 | 8
9 | C[n+]1c2ccccc2c(Nc2cccc(F)c2)c2[nH]c3ccccc3c21.[I-] | 12 | 6 | 6 | 12 | 6 | 6 | > 64 | > 64 | 6
10 | C[n+]1c2ccccc2c(Nc2ccccc2)c2[nH]c3ccccc3c21.[I-] | 12 | 6 | 6 | 12 | 8 | 6 | > 64 | > 64 | 8
11 | C[n+]1c2ccccc2c(Nc2ccccc2)c2oc3ccccc3c21.[I-] | 16 | 8 | 8 | 16 | 12 | 8 | > 64 | > 64 | 12
12 | C[n+]1c2ccccc2c(Nc2ccc(F)cc2F)c2oc3ccccc3c21.[I-] | 12 | 6 | 6 | 12 | 8 | 6 | > 64 | > 64 | 8
13 | COc1cccc(Nc2c3ccccc3[n+](C)c3c2oc2ccccc23)c1.[I-] | 12 | 6 | 6 | 12 | 8 | 6 | > 64 | > 64 | 8
14 | Cc1cc(F)ccc1Nc1c2ccccc2[n+](C)c2c1oc1ccccc12.[I-] | 12 | 6 | 6 | 12 | 8 | 6 | > 64 | > 64 | 8
